# Patent US20050096564A1, “Method of distributing skin care products” (priority 2001, published 2005)
# Experiments:
# [1] = Study 2: vitamin C concentration in ISF and serum of subjects taking oral vitamin supplements; assay type: in vivo, human; settings: Study 2, Supplement Yes
# From the text: The laser made four pores at each collection site.
# [2] = in vivo
# From the text: The studies included non-smoking, female subjects of good health over the age of 35 years and under the age 55 years with skin type of III or less by the Fitzpatrick Skin classification. […] Acceptable subjects were chronologically enrolled in the study following a randomization code describing what treatment would be applied to which dorsal forearm. […] The subject applied a blinded emulsion designated by a letter to one dorsal forearm and an alternative emulsion with a different designation to the opposite arm, twice per day, for three weeks. […] ISF was extracted from the dorsal forearm, volar upper arm, and serum at one week (“Week 2”) and three weeks after dosing (“Week 4”) and two weeks after the cessation of dosing (“Week 6”).
# ISF was extracted from both the treatment site (dorsal forearm) as well as an adjacent, untreated site volar upper arm) following one week of therapy and three weeks of therapy. Subjects ended treatment at this point and returned for a final extraction two weeks later.
# The ISF collection period lasted between three and six hours, typically four hours.
smiles,measurement,setting,value
"O=C1O[C@H]([C@@H](O)CO)C(O)=C1O [Vitamin C, vitamin C]","Vitamin C concentration, MEAN",[1]; Serum,1.36
same,"Vitamin C concentration, MEAN",[1]; Sun-exposed site ISF,1.00
same,"Vitamin C concentration, MEAN",[1]; Sun-protected site ISF,1.00
same,"Influence of topical application on levels at an adjacent, untreated site or the serum",[2],does not influence
same,Response of serum level to topical therapy,[2],did not respond
